*1 amine or outer side, *2 acyl side, *3 side chain or, on linkers, in order; H or OH if unused. Where a SMILES comes first, the peptide text is derived from it. Side-chain parts run from the residue outwards. [ ]: non-standard residue; d: D form. The star is where a group is joined. C20 diacid = O=C(O)CCCCCCCCCCCCCCCCCCC(=O)*; γGlu = O=C(O)[C@H](CCC(=O)[*:2])N[*:1]; 4Pal = N[C@@H](Cc1ccncc1)C(=O)O; αMeL = CC(C)C[C@](C)(N)C(=O)O; Orn = NCCC[C@H](N)C(=O)O; AEEA = NCCOCCOCC(=O)O; Aib = CC(C)(N)C(=O)O
Experiments:
[1] = target: T1, human glucagon receptor (GcgR) (Homo sapiens, UniProt P47871); assay: cAMP functional assay (HTRF) in HEK293 cells in presence of 0.1% casein; assay type: cell-based; conditions: HEK293 cells expressing human GcgR, geometric mean, read-out: hGcgR cAMP Rel EC50 nM (SEM, n)
T1 construct: expressed in transfected cells; host or cells: HEK293
T1 sequence (P47871 26-477): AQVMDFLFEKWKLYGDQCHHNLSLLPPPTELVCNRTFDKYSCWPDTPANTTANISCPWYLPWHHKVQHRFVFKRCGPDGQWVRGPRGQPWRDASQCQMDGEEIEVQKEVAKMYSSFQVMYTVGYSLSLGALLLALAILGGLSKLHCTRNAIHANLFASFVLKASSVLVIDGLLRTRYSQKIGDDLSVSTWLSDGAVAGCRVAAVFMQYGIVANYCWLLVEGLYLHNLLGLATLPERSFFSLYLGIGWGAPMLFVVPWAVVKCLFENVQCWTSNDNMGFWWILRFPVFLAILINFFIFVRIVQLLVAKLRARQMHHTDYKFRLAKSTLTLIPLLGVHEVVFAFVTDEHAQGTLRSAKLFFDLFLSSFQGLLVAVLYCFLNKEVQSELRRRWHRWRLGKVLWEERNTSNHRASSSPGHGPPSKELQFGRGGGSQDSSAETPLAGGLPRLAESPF

[2] = target: T2, human glucose-dependent insulinotropic peptide receptor (GIPR) (Homo sapiens, UniProt P48546); assay: as above; assay type: cell-based; conditions: HEK293 cells expressing human GIPR, geometric mean, read-out: hGIPR cAMP Rel EC50 nM (SEM, n)
T2 construct: expressed in transfected cells; host or cells: HEK293
T2 sequence (P48546 22-466): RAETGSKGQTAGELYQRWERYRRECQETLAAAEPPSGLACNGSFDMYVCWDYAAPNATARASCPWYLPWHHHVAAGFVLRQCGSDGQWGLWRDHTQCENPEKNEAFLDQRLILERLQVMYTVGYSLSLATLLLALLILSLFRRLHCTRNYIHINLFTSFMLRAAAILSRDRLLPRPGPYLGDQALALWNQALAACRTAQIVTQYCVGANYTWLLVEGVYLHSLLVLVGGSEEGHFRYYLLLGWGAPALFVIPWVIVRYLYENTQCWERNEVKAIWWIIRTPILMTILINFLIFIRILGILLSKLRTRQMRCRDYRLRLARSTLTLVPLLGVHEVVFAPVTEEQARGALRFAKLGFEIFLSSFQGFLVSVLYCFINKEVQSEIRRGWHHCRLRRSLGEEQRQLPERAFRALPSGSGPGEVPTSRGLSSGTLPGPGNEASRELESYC

Row | Structure (SMILES) | EC50 [1] [nM] | EC50 [2] [nM]
1 | CC[C@H](C)[C@H](NC(=O)[C@H](CCCN)NC(=O)[C@H](CC(=O)O)NC(=O)[C@H](CC(C)C)NC(=O)[C@](C)(CC(C)C)NC(=O)[C@@H](NC(=O)[C@H](CO)NC(=O)[C@H](Cc1ccc(O)cc1)NC(=O)[C@H](CC(=O)O)NC(=O)[C@H](CO)NC(=O)[C@@H](NC(=O)[C@H](Cc1ccccc1)NC(=O)[C@@H](NC(=O)CNC(=O)[C@H](CCC(=O)O)NC(=O)C(C)(C)NC(=O)[C@@H](N)Cc1ccc(O)cc1)[C@@H](C)O)[C@@H](C)CC)[C@@H](C)CC)C(=O)N[C@@H](Cc1c[nH]cn1)C(=O)N[C@@H](CCC(N)=O)C(=O)NC(C)(C)C(=O)N[C@@H](CCC(=O)O)C(=O)N[C@@H](Cc1ccccc1)C(=O)N[C@H](C(=O)N[C@@H](CCC(=O)O)C(=O)N[C@@H](Cc1ccc(O)cc1)C(=O)N[C@@H](CCCCNC(=O)COCCOCCNC(=O)COCCOCCNC(=O)CC[C@H](NC(=O)CCCCCCCCCCCCCCCCCCC(=O)O)C(=O)O)C(=O)N[C@@H](CC(C)C)C(=O)N[C@@H](CCC(=O)O)C(=O)N[C@@H](C)C(=O)NCC(=O)N1CCC[C@H]1C(=O)N[C@@H](CO)C(=O)N[C@@H](CO)C(=O)NCC(=O)N[C@@H](C)C(=O)N1CCC[C@H]1C(=O)N1CCC[C@H]1C(=O)N1CCC[C@H]1C(=O)N[C@@H](CO)C(N)=O)C(C)C [Example 104] (H-Y[Aib]EGTFISDYSI[αMeL]LD[Orn]IHQ[Aib]EFVEYK([AEEA-AEEA-γGlu-C20 diacid])LEAGPSSGAPPPS-NH2) | > 5000 | 0.0165
2 | CC[C@H](C)[C@H](NC(=O)[C@H](CCCN)NC(=O)[C@H](CC(=O)O)NC(=O)[C@H](CC(C)C)NC(=O)[C@](C)(CC(C)C)NC(=O)[C@@H](NC(=O)[C@H](CO)NC(=O)[C@H](Cc1ccc(O)cc1)NC(=O)[C@H](CC(=O)O)NC(=O)[C@H](CO)NC(=O)[C@@H](NC(=O)[C@H](Cc1ccccc1)NC(=O)[C@@H](NC(=O)CNC(=O)[C@H](CCC(=O)O)NC(=O)C(C)(C)NC(=O)[C@@H](N)Cc1ccc(O)cc1)[C@@H](C)O)[C@@H](C)CC)[C@@H](C)CC)C(=O)N[C@@H](Cc1c[nH]cn1)C(=O)N[C@@H](CCC(N)=O)C(=O)NC(C)(C)C(=O)N[C@@H](CCC(=O)O)C(=O)N[C@@H](Cc1ccccc1)C(=O)N[C@H](C(=O)N[C@@H](CCC(=O)O)C(=O)N[C@@H](Cc1ccc(O)cc1)C(=O)N[C@@H](CCCCNC(=O)COCCOCCNC(=O)COCCOCCNC(=O)CC[C@H](NC(=O)CCCCCCCCCCCCCCCCCCC(=O)O)C(=O)O)C(=O)N[C@@H](CC(C)C)C(=O)N[C@@H](CCC(=O)O)C(=O)N[C@H](C(=O)NCC(=O)N1CCC[C@H]1C(=O)N[C@@H](CO)C(=O)N[C@@H](CO)C(=O)NCC(=O)N[C@@H](C)C(=O)N1CCC[C@H]1C(=O)N1CCC[C@H]1C(=O)N1CCC[C@H]1C(=O)N[C@@H](CO)C(N)=O)[C@@H](C)O)C(C)C [Example 105] (H-Y[Aib]EGTFISDYSI[αMeL]LD[Orn]IHQ[Aib]EFVEYK([AEEA-AEEA-γGlu-C20 diacid])LETGPSSGAPPPS-NH2) | > 5000 | 0.0179
3 | CC[C@H](C)[C@H](NC(=O)[C@H](CCCN)NC(=O)[C@H](CC(=O)O)NC(=O)[C@H](CC(C)C)NC(=O)[C@](C)(CC(C)C)NC(=O)[C@@H](NC(=O)[C@H](CO)NC(=O)[C@H](Cc1ccc(O)cc1)NC(=O)[C@H](CC(=O)O)NC(=O)[C@H](CO)NC(=O)[C@@H](NC(=O)[C@H](Cc1ccccc1)NC(=O)[C@@H](NC(=O)CNC(=O)[C@H](CCC(=O)O)NC(=O)C(C)(C)NC(=O)[C@@H](N)Cc1ccc(O)cc1)[C@@H](C)O)[C@@H](C)CC)[C@@H](C)CC)C(=O)N[C@@H](Cc1c[nH]cn1)C(=O)N[C@@H](CCC(N)=O)C(=O)NC(C)(C)C(=O)N[C@@H](CCC(=O)O)C(=O)N[C@@H](Cc1ccccc1)C(=O)N[C@H](C(=O)N[C@@H](CCC(=O)O)C(=O)N[C@@H](Cc1ccc(O)cc1)C(=O)N[C@@H](CCCCNC(=O)COCCOCCNC(=O)COCCOCCNC(=O)CC[C@H](NC(=O)CCCCCCCCCCCCCCCCCCC(=O)O)C(=O)O)C(=O)N[C@@H](CC(C)C)C(=O)N[C@@H](CCC(=O)O)C(=O)N[C@@H](CCC(N)=O)C(=O)NCC(=O)N1CCC[C@H]1C(=O)N[C@@H](CO)C(=O)N[C@@H](CO)C(=O)NCC(=O)N[C@@H](C)C(=O)N1CCC[C@H]1C(=O)N1CCC[C@H]1C(=O)N1CCC[C@H]1C(=O)N[C@@H](CO)C(N)=O)C(C)C [Example 106] (H-Y[Aib]EGTFISDYSI[αMeL]LD[Orn]IHQ[Aib]EFVEYK([AEEA-AEEA-γGlu-C20 diacid])LEQGPSSGAPPPS-NH2) | > 5000 | 0.014
4 | CC[C@H](C)[C@H](NC(=O)[C@H](CCCN)NC(=O)[C@H](CC(=O)O)NC(=O)[C@H](CC(C)C)NC(=O)[C@](C)(CC(C)C)NC(=O)[C@@H](NC(=O)[C@H](CO)NC(=O)[C@H](Cc1ccc(O)cc1)NC(=O)[C@H](CC(=O)O)NC(=O)[C@H](CO)NC(=O)[C@@H](NC(=O)[C@H](Cc1ccccc1)NC(=O)[C@@H](NC(=O)CNC(=O)[C@H](CCC(=O)O)NC(=O)C(C)(C)NC(=O)[C@@H](N)Cc1ccc(O)cc1)[C@@H](C)O)[C@@H](C)CC)[C@@H](C)CC)C(=O)N[C@@H](Cc1c[nH]cn1)C(=O)N[C@@H](CCC(N)=O)C(=O)NC(C)(C)C(=O)N[C@@H](CCC(=O)O)C(=O)N[C@@H](Cc1ccccc1)C(=O)N[C@H](C(=O)N[C@@H](CCC(=O)O)C(=O)N[C@@H](Cc1ccc(O)cc1)C(=O)N[C@@H](CCCCNC(=O)COCCOCCNC(=O)COCCOCCNC(=O)CC[C@H](NC(=O)CCCCCCCCCCCCCCCCCCC(=O)O)C(=O)O)C(=O)N[C@@H](CC(C)C)C(=O)N[C@@H](CCC(=O)O)C(=O)NCC(=O)NCC(=O)N1CCC[C@H]1C(=O)N[C@@H](CO)C(=O)N[C@@H](CO)C(=O)NCC(=O)N[C@@H](C)C(=O)N1CCC[C@H]1C(=O)N1CCC[C@H]1C(=O)N1CCC[C@H]1C(=O)N[C@@H](CO)C(N)=O)C(C)C [Example 107] (H-Y[Aib]EGTFISDYSI[αMeL]LD[Orn]IHQ[Aib]EFVEYK([AEEA-AEEA-γGlu-C20 diacid])LEGGPSSGAPPPS-NH2) | > 5000 | 0.0199
5 | CC[C@H](C)[C@H](NC(=O)[C@H](CCCN)NC(=O)[C@H](CC(=O)O)NC(=O)[C@H](CC(C)C)NC(=O)[C@](C)(CC(C)C)NC(=O)[C@@H](NC(=O)[C@H](CO)NC(=O)[C@H](Cc1ccc(O)cc1)NC(=O)[C@H](CC(=O)O)NC(=O)[C@H](CO)NC(=O)[C@@H](NC(=O)[C@H](Cc1ccccc1)NC(=O)[C@@H](NC(=O)CNC(=O)[C@H](CCC(=O)O)NC(=O)C(C)(C)NC(=O)[C@@H](N)Cc1ccc(O)cc1)[C@@H](C)O)[C@@H](C)CC)[C@@H](C)CC)C(=O)N[C@@H](Cc1c[nH]cn1)C(=O)N[C@@H](CCC(N)=O)C(=O)NC(C)(C)C(=O)N[C@@H](CC(=O)O)C(=O)N[C@@H](Cc1ccccc1)C(=O)N[C@H](C(=O)N[C@@H](CCC(=O)O)C(=O)N[C@@H](Cc1ccncc1)C(=O)N[C@@H](CCCCNC(=O)COCCOCCNC(=O)COCCOCCNC(=O)CC[C@H](NC(=O)CCCCCCCCCCCCCCCCCCC(=O)O)C(=O)O)C(=O)N[C@@H](CC(C)C)C(=O)N[C@@H](CCC(=O)O)C(=O)NCC(=O)NCC(=O)N1CCC[C@H]1C(=O)N[C@@H](CO)C(=O)N[C@@H](CO)C(=O)NCC(=O)N[C@@H](C)C(=O)N1CCC[C@H]1C(=O)N1CCC[C@H]1C(=O)N1CCC[C@H]1C(=O)N[C@@H](CO)C(N)=O)C(C)C [Example 108] (H-Y[Aib]EGTFISDYSI[αMeL]LD[Orn]IHQ[Aib]DFVE[4Pal]K([AEEA-AEEA-γGlu-C20 diacid])LEGGPSSGAPPPS-NH2) | > 5000 | 0.0088
6 | CC[C@H](C)[C@H](NC(=O)[C@H](CCCCN)NC(=O)[C@H](CC(=O)O)NC(=O)[C@H](CC(C)C)NC(=O)[C@](C)(CC(C)C)NC(=O)[C@@H](NC(=O)[C@H](CO)NC(=O)[C@H](Cc1ccc(O)cc1)NC(=O)[C@H](CC(=O)O)NC(=O)[C@H](CO)NC(=O)[C@@H](NC(=O)[C@H](Cc1ccccc1)NC(=O)[C@@H](NC(=O)CNC(=O)[C@H](CCC(=O)O)NC(=O)C(C)(C)NC(=O)[C@@H](N)Cc1ccc(O)cc1)[C@@H](C)O)[C@@H](C)CC)[C@@H](C)CC)C(=O)N[C@@H](Cc1c[nH]cn1)C(=O)N[C@@H](CCC(N)=O)C(=O)NC(C)(C)C(=O)N[C@@H](CC(=O)O)C(=O)N[C@@H](Cc1ccccc1)C(=O)N[C@H](C(=O)N[C@@H](CCC(=O)O)C(=O)N[C@@H](Cc1ccncc1)C(=O)N[C@@H](CCCCNC(=O)COCCOCCNC(=O)COCCOCCNC(=O)CC[C@H](NC(=O)CCCCCCCCCCCCCCCCCCC(=O)O)C(=O)O)C(=O)N[C@@H](CC(C)C)C(=O)N[C@@H](CCC(=O)O)C(=O)NCC(=O)NCC(=O)N1CCC[C@H]1C(=O)N[C@@H](CO)C(=O)N[C@@H](CO)C(=O)NCC(=O)N[C@@H](C)C(=O)N1CCC[C@H]1C(=O)N1CCC[C@H]1C(=O)N1CCC[C@H]1C(=O)N[C@@H](CO)C(N)=O)C(C)C [Example 109] (H-Y[Aib]EGTFISDYSI[αMeL]LDKIHQ[Aib]DFVE[4Pal]K([AEEA-AEEA-γGlu-C20 diacid])LEGGPSSGAPPPS-NH2) | > 5000 | 0.0113

Reference: patent publication US12723063B2, “GIPR-agonist compounds” (Eli Lilly and Company, priority 2019, dated 2026)
